Experimental data published in ChEMBL document CHEMBL4680363, “Novel Bicyclic Heterocycles as FGFR Inhibitors for Treating Cancer” (ACS Med Chem Lett, 2021).

Biological target: Fibroblast growth factor receptor 3 (Homo sapiens, UniProt P22607)
Experiment: Inhibition of recombinant human N-terminal His6-tagged FGFR3 (447 to 761 residues) expressed in Sf21 cells using biotinylated EQEDEPEGDYFEWLE peptide as substrate preincubated for 4 hrs followed by substrate addition and measured after 1 hr in presence of ATP by FRET assay

Chain of Fibroblast growth factor receptor 3 (P22607 whole entry, the tested form may be a part): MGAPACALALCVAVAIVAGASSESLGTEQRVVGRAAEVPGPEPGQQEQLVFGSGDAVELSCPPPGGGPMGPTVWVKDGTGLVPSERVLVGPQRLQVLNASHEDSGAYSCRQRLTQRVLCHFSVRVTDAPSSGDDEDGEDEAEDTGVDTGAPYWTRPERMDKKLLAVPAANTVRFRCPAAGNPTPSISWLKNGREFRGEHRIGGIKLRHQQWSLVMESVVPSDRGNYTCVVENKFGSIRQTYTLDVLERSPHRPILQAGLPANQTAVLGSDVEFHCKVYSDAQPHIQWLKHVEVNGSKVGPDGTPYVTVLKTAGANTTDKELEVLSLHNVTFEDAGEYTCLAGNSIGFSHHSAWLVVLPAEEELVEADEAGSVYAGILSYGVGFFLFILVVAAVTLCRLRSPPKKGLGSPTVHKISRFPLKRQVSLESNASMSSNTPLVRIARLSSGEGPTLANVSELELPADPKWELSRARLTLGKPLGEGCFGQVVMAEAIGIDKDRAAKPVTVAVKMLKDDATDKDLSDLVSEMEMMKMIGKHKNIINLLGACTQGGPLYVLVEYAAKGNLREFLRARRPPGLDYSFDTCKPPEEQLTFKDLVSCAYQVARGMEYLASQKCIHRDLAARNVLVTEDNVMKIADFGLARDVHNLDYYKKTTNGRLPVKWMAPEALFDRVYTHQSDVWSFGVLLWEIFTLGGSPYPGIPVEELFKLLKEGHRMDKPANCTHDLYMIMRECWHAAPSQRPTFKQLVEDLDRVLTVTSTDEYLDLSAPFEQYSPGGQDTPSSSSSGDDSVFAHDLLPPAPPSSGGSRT

Row | Structure (SMILES) | IC50 [nM]
1 | CC(C)C1C(=O)N(C)CCN1c1ccc2[nH]nc(-c3cnn(Cc4cccnc4)c3)c2n1 (stereo unspecified) | < 10
2 | Cn1cc(-c2n[nH]c3ccc(N4CCn5cnc(C(F)(F)F)c5C4)nc23)cn1 | < 10
3 | CN1CCN(c2ccc3[nH]nc(-c4cnn(C)c4)c3n2)C(C2CC2)C1=O (stereo unspecified) | < 10
4 | CC1CN(c2ccc3[nH]nc(-c4cnn(C)c4)c3n2)C(C)C(=O)N1C (stereo unspecified) | < 10

Other lines, results leading:

Row | IC50 [nM] | Structure (SMILES)
5 | < 10 | CC(C)C1C(=O)N(C)CCN1c1ccc2[nH]nc(-c3cnn(C)c3)c2n1 (stereo unspecified)
6 | < 10 | CC(C)C1C(=O)N(C)CCN1c1ccc2[nH]nc(-c3cc4cnccc4s3)c2n1 (stereo unspecified)
